# In patent US20200040326A1, “METHOD FOR PROVIDING A DNA-ENCODED LIBRARY, DNA-ENCODED LIBRARY AND METHOD OF DECODING A DNA-ENCODED LIBRARY” (TU Dresden, priority 2018, published 2020):
# Target: enzyme carbonic anhydrase II (Homo sapiens, UniProt P00918)
# Conditions: substance as DNA conjugate within the DEL; primer pairs 1a/1b (whole library), 2a/2b (CBS), 3a/3b (Theo); small ΔCq reflects large enrichment
smiles,measurement,value
"Cn1cnc2c1c(=O)[nH]c(=O)n2C [Theo, theobromine]","enrichment after selection (from ΔCq, difference in qPCR cycle before and after selection)",not enriched
